Test results from patent US11078189B2, “Pharmaceutical compounds” (REVIRAL LIMITED, priority 2017, dated 2021).

Experiments:
[1] = target: T1, RSV fusion (pCDNA3.1_A2_F in HEK 293T cells) (Human respiratory syncytial virus A, UniProt P03420); test: RSV fusion assay; format: cell-based
T1 construct: expressed in transfected cells; host or cells: HEK 293T (ECACC 12022001)
Experimental: HEK 293T ((ECACC 12022001) cells were cultured in T75 culture flasks in Dulbecco's medium (DMEM) containing 10% Foetal Bovine serum (FBS), 50 units per mL Penicillin and 50 μg/mL Streptomycin and warmed to 37° C. prior to use. The cells were passaged by first washing briefly with 5 mL Phosphate buffered saline (PBS), followed by addition of 2 mL of Trypsin Ethylenediaminetetraacetic acid (EDTA) to detach the cells. Once cells had detached from the flask, 8 mL media was then added to and the cells dispersed via pipetting against the bottom of the flask.
The cells were counted and diluted to 3×10^5 cells/ml in fresh media. Two T75 flasks were each seeded with 15.6 mL diluted cells, cells were also subcultured at a ratio of between 1:2 and 1:10, to continue the stock. The flasks were then incubated for 24 h at 37° C. and 5% CO2.
The plasmid DNA (for pFR-Luc and pcDNA3. 1_Gal4/NFKB) to be transfected into the HEK 293T cells was first prepared in serum free media (Opti-MEM, Invitrogen), containing the transfection reagent FuGENE® 6 (Promega). Serum free media was placed in a 1.5 mL eppendorf tube then the FuGENE 6 was added into the media. The tube was vortexed for 1 s before being incubated at RT for 5 min. 7.79 ng of both pFR_luc and pCDNA3.1_A2_F plasmid DNA were added to tube 1 and 7.79 ng of pCDNA3.1_GAL4-NF-κB plasmid to tube 2. The tubes were vortexed for 1 second and then incubated at room temperature for 15 min. Each transfection mixture was then added into the media of one of the T75 flasks of 293T cells. Cells were cultured for 24h at 37° C., 5% CO2 in a humidified incubator.
Compounds were diluted (in a polypropylene round-bottomed 96 well plate) 1:3 in a twelve point dilution curve to give top [final] of either 25 μM, 3 μM, 1 μM or 500 nM. A control compound was included in every assay at a top concentration of 3 μM. Transfected cells were counted and diluted to 4×10^5 cells/mL in fresh media. 50 μL of transfection population 1 were added to all wells of the 96 well flat bottom white opaque assay plates. 100 μL diluted compound (2 rows per compound), control compound (one row) and controls (DMSO (0% inhibition, four wells), 3 μM positive control (100% inhibition, four wells) and media (transfection population 1 only, four wells) were added to the appropriate wells. 50 μL of the diluted (4×10^5 cells/mL) population 2 cells when then added to all wells, except the four wells of transfection population 1 only where an extra 50 μL of this cells population was added.
The plates were then incubated for 24 h at 37° C. and 5% CO2. After this time, 100 μL was removed from all wells and 60 μL of ONE-Glo™ (Promega) reagent, pre-equilibrated to room temperature, was added. Plates were then incubated for 3 min at room temperature before luminescence was read, using the ONE-Glo protocol, on the GloMax Explorer System (Promega) multimode reader. Analysis was carried out in Dotmatics software. All raw data were background subtracted (subtraction of mean 3 μM positive control value), before IC50 calculation.

MDR1 = test: in vitro; format: in vitro ADME; conditions: dog, MDCK-MDR1
Experimental: MDR1-MDCK cells obtained from the NIH (Rockville, Md., USA) are used between passage numbers 6-30. Cells are seeded onto Millipore Multiscreen Transwell plates at 3.4×10^5 cells/cm^2. The cells are cultured in DMEM and media is changed on day 3. On day 4 the permeability study is performed. Cell culture and assay incubations are carried out at 37° C. in an atmosphere of 5% CO2 with a relative humidity of 95%. On the day of the assay, the monolayers are prepared by rinsing both basolateral and apical surfaces twice with Hanks Balanced Salt Solution (HBSS) at the desired pH warmed to 37° C. Cells are then incubated with HBSS at the desired pH in both apical and basolateral compartments for 40 min to stabilise physiological parameters.
The dosing solutions are prepared by diluting test compound with assay buffer to give a final test compound concentration of 10 μM (final DMSO concentration of 1% v/v). The fluorescent integrity marker lucifer yellow is also included in the dosing solution. Analytical standards are prepared from test compound DMSO dilutions and transferred to buffer, maintaining a 1% v/v DMSO concentration.
For assessment of A-B permeability, HBSS is removed from the apical compartment and replaced with test compound dosing solution. The apical compartment insert is then placed into a companion plate containing fresh buffer (containing 1% v/v DMSO). For assessment of B-A permeability, FIBSS is removed from the companion plate and replaced with test compound dosing solution. Fresh buffer (containing 1% v/v DMSO) is added to the apical compartment insert, which is then placed into the companion plate. At 60 min the apical compartment inserts and the companion plates are separated and apical and basolateral samples diluted for analysis. Test compound permeability is assessed in duplicate. Compounds of known permeability characteristics are run as controls on each assay plate.
Test and control compounds are quantified by LC-MSMIS cassette analysis using an 8-point calibration with appropriate dilution of the samples. The starting concentration (C0) is determined from the dosing solution and the experimental recovery calculated from C0 and both apical and basolateral compartment concentrations. The integrity of the monolayer throughout the experiment is checked by monitoring lucifer yellow permeation using fluorimetric analysis. Lucifer yellow permeation is high if monolayers have been damaged.

RSV A2 VR-1540 = test: RSV plaque reduction assay; format: cell-based; conditions: human respiratory syncytial virus; Strain A2; n = 1; HEp-2 cells
Experimental: HEp-2 cells (ATCC, CCL23) were passaged in flasks and seeded in 96-well plates in DMEM containing antibiotics and supplemented with 10% FBS. During inoculation and subsequent incubation, cells were cultured in DMEM containing 3% FBS. 100 plaque forming unit (PFU)/well of RSV (RSV A2 VR-1540) was mixed with ten serial dilutions of compound. Subsequently, 100 μL of the virus/compound mixtures was added to confluent HEp-2 cell monolayers. The cells and virus/compound mixtures were incubated at 35° C. in a humidified 5% CO2 incubator for 1 day.
Cells were washed twice with PBS before adding 50% v/v EtOH/MeOH, and then stored at −20° C. On the day of the staining, fixative was first removed from the plates. Plates were washed 3× with PBS. A pre-titrated amount of the primary antibody was added in 60 μL PBS/2% milk powder, and plates incubated for 1 h at […]. The plates were washed 3× with PBS/0.05% Tween20 before addition of goat anti-mouse horse radish peroxidase in 60 μL PBS/2% milk powder, and incubated for 1 h at rt. Following three wash steps with PBS/0.05% Tween20, 60 μL ready-to-use TrueBlue was added and plates were incubated at rt for 10-15 min before adding MilliQ water. Plates were washed once with water, incubated for 30-60 min and after removal of water, air-dried in the dark.
Plates were scanned and analyzed using the Immunospot S6 UV analyzer, which is equipped with BioSpot analysis software for counting immunostained plaques (virospots). Plaque counts were used to calculate % infection relative to the mean of the spot count (SC) in the virus control wells for RSV. IC50/IC90 values were calculated as 50% or 90% reduction in signal, respectively, by interpolation of inhibition curves fitted with a 4-parameter nonlinear regression with a variable slope in GraphPad 5.0 (Prism).

T1 sequence (P03420 26-109): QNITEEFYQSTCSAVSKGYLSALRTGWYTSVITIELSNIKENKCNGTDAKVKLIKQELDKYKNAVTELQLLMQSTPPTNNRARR
T1 sequence (P03420 137-574): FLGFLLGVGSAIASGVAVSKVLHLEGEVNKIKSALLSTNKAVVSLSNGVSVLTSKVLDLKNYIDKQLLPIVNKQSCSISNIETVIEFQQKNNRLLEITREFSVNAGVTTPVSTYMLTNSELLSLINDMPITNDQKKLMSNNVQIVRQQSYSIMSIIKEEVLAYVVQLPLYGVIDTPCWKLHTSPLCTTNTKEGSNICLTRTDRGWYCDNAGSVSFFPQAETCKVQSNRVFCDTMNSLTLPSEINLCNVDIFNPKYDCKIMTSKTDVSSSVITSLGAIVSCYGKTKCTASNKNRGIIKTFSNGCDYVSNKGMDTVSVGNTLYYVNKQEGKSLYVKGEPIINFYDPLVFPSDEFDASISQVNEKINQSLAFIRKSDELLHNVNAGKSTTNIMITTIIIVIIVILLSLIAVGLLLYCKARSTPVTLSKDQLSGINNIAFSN

Compound	IC50 [1] [nM]	Papp A→B at 60 min, 10 μM (MDR1) [×10⁻⁶ cm/s]	Papp B→A at 60 min, 10 μM (MDR1) [×10⁻⁶ cm/s]	IC50 (RSV A2 VR-1540) [nM]	IC90 (RSV A2 VR-1540) [nM]
CS(=O)(=O)C1CCN(CCCn2c(CN3C(=O)C4(CC4)c4ccc(F)cc43)nc3cc(Cl)ccc32)CC1 [Compound 20, 1′-({5-Chloro-1-[3-(4-methanesulfonylpiperidin-1-yl)propyl]-1H-1,3-benzodiazol-2-yl}methyl)-6′-fluoro-1′,2′-dihydrospiro[cyclopropane-1,3′-indole]-2′-one]	12	1.6	61.3	5.9	7.5
O=C1N(Cc2nc3cc(Cl)ccc3n2CCCN2CCOCC2)c2cc(F)ccc2C12CC2 [Compound 18, 1′-({5-Chloro-1-[3-(morpholin-4-yl)propyl]-1H-1,3-benzodiazol-2-yl}methyl)-6′-fluoro-1′,2′-dihydrospiro[cyclopropane-1,3′-indole]-2′-one]	70			7.6	60
CS(=O)(=O)C1CCN(CCCn2c(CN3C(=O)C4(CC4)c4ccc(F)cc43)nc3cc(Cl)ccc32)C1 (stereo not shown) [Compound 14, 1′-({5-Chloro-1-[3-(3-methanesulfonylpyrrolidin-1-yl)propyl]-1H-1,3-benzodiazol-2-yl}methyl)-6′-fluoro-1′,2′-dihydrospiro[cyclopropane-1,3′-indole]-2′-one]	18	4.8	68	3.5	34
CS(=O)(=O)N1CCN(CCCn2c(CN3C(=O)C4(CC4)c4ccc(F)cc43)nc3cc(Cl)ccc32)CC1 [Compound 1, 1′-({5-Chloro-1-[3-(4-methanesulfonylpiperazin-1-yl)propyl]-1H-1,3-benzodiazol-2-yl}methyl)-6′-fluoro-1,2′-dihydrospiro[cyclopropane-1,3′-indole]-2′-one]	19			5.9	50
CCS(=O)(=O)CCNCCCn1c(CN2C(=O)C3(CC3)c3ccc(F)cc32)nc2cc(Cl)ccc21 [Compound 11, 1′-{[5-Chloro-1-(3-{[2-(ethanesulfonyl)ethyl]amino}propyl)-1H-1,3-benzodiazol-2-yl]methyl}-6′-fluoro-1′,2′-dihydrospiro[cyclopropane-1,3′-indole]-2′-one]	24			5	41
CC(C)[C@H](NCCCn1c(CN2C(=O)C3(CC3)c3ccc(F)cc32)nc2cc(Cl)ccc21)C(N)=O [Compound 12, (2S)-2-({3-[5-chloro-2-({6′-fluoro-2′-oxo-1′,2′-dihydrospiro[cyclopropane-1,3′-indole]-1′-yl}methyl)-1H-1,3-benzodiazol-1-yl]propyl}amino)-3-methylbutanamide]	71			29	200
CS(=O)(=O)CCNCCCn1c(CN2C(=O)C3(CC3)c3ccc(F)cc32)nc2cc(Cl)ccc21 [Compound 10, 1′-[(5-Chloro-1-{3-[(2-methanesulfonylethyl)amino]propyl}-1H-1,3-benzodiazol-2-yl)methyl]-6′-fluoro-1′,2′-dihydrospiro[cyclopropane-1,3′-indole]-2′-one]	12			2.5	31
O=C1N(Cc2nc3cc(Cl)ccc3n2CCCN2CCS(=O)(=O)CC2)c2cc(F)ccc2C12CC2 [Compound 28, 4-{3-[5-Chloro-2-({6′-fluoro-2′-oxo-1′,2′-dihydrospiro[cyclopropane-1,3′-indole]-1′-yl}methyl)-1H-1,3-benzodiazol-1-yl]propyl}-1λ6-thiomorpholine-1,1-dione]	115			9.5	48
CS(=O)(=O)C1CN(CCCn2c(CN3C(=O)C4(CC4)c4ccc(F)cc43)nc3cc(Cl)ccc32)C1 [Compound 13, 1′-({5-Chloro-1-[3-(3-methanesulfonylazetidin-1-yl)propyl]-1H-1,3-benzodiazol-2-yl}methyl)-6′-fluoro-1′,2′-dihydrospiro[cyclopropane-1,3′-indole]-2′-one]	10			4.5	41
CS(=O)(=O)N1CCN(CCn2c(CN3C(=O)C4(CC4)c4ccc(F)cc43)nc3cc(Cl)ccc32)CC1 [Compound 9, 1′-({5-chloro-1-[2-(4-methanesulfonylpiperazin-1-yl)ethyl]-1H-1,3-benzodiazol-2-yl}methyl)-6′-fluoro-1′,2′-dihydrospiro[cyclopropan-1,3′-indole]-2′-one]	15			4.2	28
